Data set [1] can be described thus: Intrinsic clearance in human liver microsomes. The format is ADME, Microsome. The settings on record: read-out: CLH.
Data set [2] has as its target T1, Glucose-dependent insulinotropic receptor (Homo sapiens, UniProt Q8TDV5).
T1 sequence (Q8TDV5 whole entry): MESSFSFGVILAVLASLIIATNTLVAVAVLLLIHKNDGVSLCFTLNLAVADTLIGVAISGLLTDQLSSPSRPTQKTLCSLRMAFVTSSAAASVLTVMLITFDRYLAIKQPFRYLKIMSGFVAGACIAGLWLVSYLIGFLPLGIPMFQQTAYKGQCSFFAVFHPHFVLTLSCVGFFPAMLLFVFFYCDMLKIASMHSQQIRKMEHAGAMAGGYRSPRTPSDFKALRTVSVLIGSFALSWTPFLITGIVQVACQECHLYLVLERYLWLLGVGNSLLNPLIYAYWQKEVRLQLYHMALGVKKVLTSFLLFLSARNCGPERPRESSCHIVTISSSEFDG
In words: Agonist activity at human GPR119 expressed in HEK293 cells co-expressing CRE beta-lactamase assessed as cAMP accumulation by HTRF assay. Type of data set: functional, cell-based.

Data set [3] addresses T2, Glucose-dependent insulinotropic receptor (Homo sapiens) (UniProt Q8TDV5).
T2 sequence (whole entry): T1 sequence (Q8TDV5 whole entry)
The experiment in a line: Intrinsic activity at human recombinant GPR119 expressed in HEK293 cells co-expressing CRE beta-lactamase assessed as cAMP accumulation at 10 uM by HTRF assay relative to control. Type of data set: functional, cell-based.

A further data set in a line: physchem. The settings on record: buffer, pH 7.4.

The results in this text go back to ChEMBL document CHEMBL2311308, “From partial to full agonism: identification of a novel 2,4,5,6-tetrahydropyrrolo[3,4-c]pyrazole as a full agonist of the human GPR119 receptor” (Bioorg Med Chem Lett, 2013).

With `CCc1cnc(OC(=O)N2CCC(n3cc(CNc4ccc(S(C)(=O)=O)cc4F)cn3)CC2)nc1`, the microsomal CLint in data set [1] came out at 148 µL/min/mg. For the same compound, the EC50 in data set [2] was found to be 47 nM. Moreover, the Intrinsic activity in data set [3] was 43%. In the data set “physchem”, this compound displayed a logD of 3.
Consider `Cc1nc(S(C)(=O)=O)ccc1NCc1cnn(C2CCN(C(=O)OC(C)C)CC2)c1`, for which the EC50 in data set [2] is > 10000 nM. Further, in the data set “physchem”, the pH-dependent lipophilicity (logD) came to 1.6.
As to `CC(C)OC(=O)N1CCC(n2cc3c(n2)CN(c2ccc(S(C)(=O)=O)cc2F)C3)CC1`, in data set [1], the microsomal CLint was 36.1 µL/min/mg. In data set [2], the 50% effective concentration (EC50) amounted to 260 nM. Also, in data set [3], the Intrinsic activity worked out at 48%. For the same compound, the pH-dependent lipophilicity (logD) in the data set “physchem” stood at 3.2.
Consider `CC(C)OC(=O)N1CCC(N2Cc3cn(-c4ccc(S(C)(=O)=O)cc4F)nc3C2)CC1`, for which the microsomal CLint in data set [1] is 10.5 µL/min/mg. Besides, in data set [2], the EC50 amounted to 864 nM. Also, in data set [3], the Intrinsic activity was found to be 105%.
For `CC(C)COC(=O)N1CCC(n2cc(CNc3ccc(S(C)(=O)=O)cc3F)cn2)CC1`, the EC50 in data set [2] stood at 240 nM. Moreover, the Intrinsic activity in data set [3] was found to be 24%. This compound returned a logD in “physchem” of 2.8.
Take `CS(=O)(=O)c1ccc(NCc2cnn(C3CCN(C(=O)OC4CCC4)CC3)c2)c(F)c1`: in data set [2], the EC50 is 462 nM. Besides, in data set [3], the Intrinsic activity is 42%. In “physchem”, this compound had a logD of 2.5.
On to `CC(C)OC(=O)N1CCC(n2cc(CNc3ccc(S(C)(=O)=O)cc3F)cn2)CC1`, for which the microsomal CLint in data set [1] was 9.7 µL/min/mg. In addition, the EC50 in data set [2] came out at 181 nM. Moreover, the Intrinsic activity in data set [3] was determined as 41%. In “physchem”, this compound displayed a logD of 2.3.
As to `CCc1cnc(N2CCC([N+]3([O-])Cc4cn(-c5ccc(S(C)(=O)=O)cc5F)nc4C3)CC2)nc1` (stereo unspecified), the microsomal CLint in data set [1] stood at 9.8 µL/min/mg. The EC50 in data set [2] is 498 nM. The Intrinsic activity in data set [3] turned out to be 107%. In addition, the logD in the data set “physchem” came out at 1.1.
For `CCc1cnc(N2CCC(N3Cc4cn(-c5ccc(S(C)(=O)=O)cc5F)nc4C3)CC2)nc1`, the microsomal CLint in data set [1] turned out to be 23 µL/min/mg. In addition, the EC50 in data set [2] turned out to be 83 nM. For the same compound, the Intrinsic activity in data set [3] stood at 118%. Moreover, the logD in “physchem” is 2.9.
